Values of other authors, collected in patent publication US9546401B2, “Assays and methods for selecting a treatment regimen for a subject with depression” (The General Hospital Corporation, priority 2011, dated 2017).
Like-named read-outs stand apart in the source and are kept apart here.

Key:
[1] = tested on: adults with major depression; conditions: cited from earlier work
[2] = tested on: adults with MDD and partial or nonresponse to an SSRI; conditions: cited from earlier work
[3] = tested on: depression; conditions: parenteral and certain oral forms; cited from earlier work

Question: Which results are given for `CNCCC(Oc1ccc(C(F)(F)F)cc1)c1ccccc1` (stereo not shown) [fluoxetine]?
Answer: rate of non-response ([1]; individuals with low or deficient serum folate): 35%; rate of non-response ([1]; serum folate levels in the normal range): 20%

Question: For `Nc1nc2c(c(=O)[nH]1)N(C=O)C(CNc1ccc(C(=O)N[C@@H](CCC(=O)O)C(=O)O)cc1)CN2` (stereo partly shown) [folinic acid, Folinic acid], which “Folate levels after treatment” value ([2]; 15-30 mg/day added to SSRIs, 8 weeks, baseline 28+/−19 ng/mL) is on record?
Answer: 301 ± 203 ng/mL

Question: And the “HAM-D-17 score after treatment” value ([2]; 16 completers, baseline 19.1+/−3.9)?
Answer: 12.8+/−7.0

Question: And the “remission (HAM-D-17 no greater than 7)” value ([2]; ITT sample)?
Answer: 18%

Question: And the “remission (HAM-D-17 no greater than 7)” value ([2]; completers)?
Answer: 19%

Question: And the “response (at least 50% reduction in HAM-D-17)” value ([2]; completers)?
Answer: 31%

Question: And the “efficacy as an adjunct in SSRI-refractory depressed individuals with normal folate levels” value ([2]; in vivo)?
Answer: only modestly effective

Question: What about the “response (at least 50% reduction in HAM-D-17)” value ([2]; intent-to-treat (ITT) sample) of the same compound?
Answer: 27%

Question: With `C[S+](CC[C@H](N)C(=O)O)C[C@H]1O[C@@H](n2cnc3c(N)ncnc32)[C@H](O)[C@@H]1O` (stereo partly shown) [SAM, S-adenosyl methionine] as the compound, how does the antidepressant efficacy [3] read?
Answer: antidepressant efficacy greater than placebo and comparable to that of tricyclic antidepressants
